Assay results from US20220340597A1, “HEXAHYDRO-1H-PYRAZINO[1,2-A]PYRAZINE COMPOUNDS FOR THE TREATMENT OF AUTOIMMUNE DISEASE” (Hoffmann-La Roche Inc., priority 2019, published 2022).

Experiments:
human TLR7 = molecular target: T1, human TLR7 (Homo sapiens, UniProt Q9NYK1); experiment: HEK293-Blue-hTLR-7 cells assay; assay type: cell-based; details: HEK293-Blue-hTLR7 cells, R848 stimulation, 20 hrs, SEAP reporter; read-out: HEK/hTLR7 IC50
T1 construct: host or cells: HEK293 (HEK-Blue hTLR7)
T1 sequence (Q9NYK1 27-1049): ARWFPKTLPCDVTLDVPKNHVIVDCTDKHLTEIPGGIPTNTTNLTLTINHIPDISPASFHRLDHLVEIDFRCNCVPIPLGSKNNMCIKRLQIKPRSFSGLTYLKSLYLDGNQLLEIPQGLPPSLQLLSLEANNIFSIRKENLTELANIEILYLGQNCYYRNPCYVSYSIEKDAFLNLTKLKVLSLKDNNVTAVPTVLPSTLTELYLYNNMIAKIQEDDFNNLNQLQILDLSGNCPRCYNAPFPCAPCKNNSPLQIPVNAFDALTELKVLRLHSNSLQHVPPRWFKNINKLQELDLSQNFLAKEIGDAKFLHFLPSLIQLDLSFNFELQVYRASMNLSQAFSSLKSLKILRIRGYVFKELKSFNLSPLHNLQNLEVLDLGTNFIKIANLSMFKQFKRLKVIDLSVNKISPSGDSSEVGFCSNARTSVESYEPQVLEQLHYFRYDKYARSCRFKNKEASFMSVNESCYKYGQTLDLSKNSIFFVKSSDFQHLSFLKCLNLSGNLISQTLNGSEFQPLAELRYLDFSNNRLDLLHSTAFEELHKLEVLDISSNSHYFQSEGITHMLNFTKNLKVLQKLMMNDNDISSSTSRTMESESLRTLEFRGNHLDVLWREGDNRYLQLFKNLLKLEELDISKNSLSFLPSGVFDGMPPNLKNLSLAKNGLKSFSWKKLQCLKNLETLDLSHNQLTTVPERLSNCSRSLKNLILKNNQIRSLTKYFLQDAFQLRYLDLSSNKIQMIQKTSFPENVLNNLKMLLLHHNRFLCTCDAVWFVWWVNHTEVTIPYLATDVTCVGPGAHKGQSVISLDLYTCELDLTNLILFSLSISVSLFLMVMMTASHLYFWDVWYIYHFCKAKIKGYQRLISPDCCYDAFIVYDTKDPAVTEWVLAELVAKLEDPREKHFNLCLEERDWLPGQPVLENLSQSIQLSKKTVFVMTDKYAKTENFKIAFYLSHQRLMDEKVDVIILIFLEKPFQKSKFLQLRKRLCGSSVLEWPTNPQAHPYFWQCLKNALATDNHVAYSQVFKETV
Procedure: The following tests were carried out in order to determine the activity of the compounds of formula (I) and (Ia) in HEK293-Blue-hTLR-7/8/9 cells assay.
HEK293-Blue-hTLR-7 cells assay:
A stable HEK293-Blue-hTLR-7 cell line was purchased from InvivoGen (Cat. #: hkb-htlr7, San Diego, Calif., USA). These cells were originally designed for studying the stimulation of human TLR7 by monitoring the activation of NF-κB. A SEAP (secreted embryonic alkaline phosphatase) reporter gene was placed under the control of the […] minimal promoter fused to five NF-κB and AP-1-binding sites. The SEAP was induced by activating NF-κB and AP-1 via stimulating HEK-Blue hTLR7 cells with TLR7 ligands. Therefore, the reporter expression was declined by TLR7 antagonist under the stimulation of a ligand, such as R848 (Resiquimod), for incubation of 20 hrs. The cell culture supernatant SEAP reporter activity was determined using QUANTI-Blue™ kit (Cat. #: rep-qb1, Invivogen, San Diego, Calif., USA) at a wavelength of 640 nm, a detection medium that turns purple or blue in the presence of alkaline phosphatase.
Then 20 μL of the supernatant from each well was incubated with […] Quanti-blue substrate solution at 37° C. for 2 hrs and the absorbance was read at 620-655 nm using a spectrophotometer. The signaling pathway that TLR7 activation leads to downstream NF-κB activation has been widely accepted, and therefore similar reporter assay was modified for evaluating TLR7 antagonist.

human TLR8 = molecular target: T2, human TLR8 (Homo sapiens, UniProt Q9NR97); experiment: HEK293-Blue-hTLR-8 cells assay
T2 sequence (Q9NR97 27-1041): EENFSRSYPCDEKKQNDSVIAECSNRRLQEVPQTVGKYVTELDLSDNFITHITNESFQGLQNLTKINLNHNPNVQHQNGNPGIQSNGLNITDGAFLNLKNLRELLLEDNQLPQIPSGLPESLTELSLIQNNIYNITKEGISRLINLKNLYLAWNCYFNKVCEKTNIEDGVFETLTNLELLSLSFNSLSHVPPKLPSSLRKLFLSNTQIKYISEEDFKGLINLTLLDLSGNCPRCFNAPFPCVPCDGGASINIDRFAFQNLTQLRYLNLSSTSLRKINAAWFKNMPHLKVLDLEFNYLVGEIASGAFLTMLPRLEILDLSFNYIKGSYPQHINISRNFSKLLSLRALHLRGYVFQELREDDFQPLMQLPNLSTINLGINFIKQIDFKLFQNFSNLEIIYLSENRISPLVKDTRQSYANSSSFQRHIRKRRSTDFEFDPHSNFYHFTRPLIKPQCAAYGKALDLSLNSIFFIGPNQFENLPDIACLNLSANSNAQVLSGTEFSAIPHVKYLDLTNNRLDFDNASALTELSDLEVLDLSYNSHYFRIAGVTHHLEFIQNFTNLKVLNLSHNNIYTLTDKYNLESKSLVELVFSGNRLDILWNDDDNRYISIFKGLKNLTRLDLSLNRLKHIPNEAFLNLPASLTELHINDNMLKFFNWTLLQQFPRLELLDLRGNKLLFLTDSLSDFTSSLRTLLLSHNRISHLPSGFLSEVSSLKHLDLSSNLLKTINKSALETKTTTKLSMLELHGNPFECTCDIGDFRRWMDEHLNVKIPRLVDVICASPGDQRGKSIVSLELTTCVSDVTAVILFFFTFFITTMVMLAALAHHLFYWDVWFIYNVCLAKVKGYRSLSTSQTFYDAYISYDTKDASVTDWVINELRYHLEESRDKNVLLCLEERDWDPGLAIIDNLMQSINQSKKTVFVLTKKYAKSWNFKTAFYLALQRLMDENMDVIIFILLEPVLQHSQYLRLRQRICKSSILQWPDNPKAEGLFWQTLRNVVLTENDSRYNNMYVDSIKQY

IC50 (human TLR7) [nM] | IC50 (human TLR8) [nM] | SMILES
6 | 9 | C[C@@H]1CN(c2ccc(C#N)c3ncccc23)C[C@@H]2CN(c3nccc4c3CCNC4)CCN21 [Example 16, 5-[(4R,9aR)-4-methyl-8-(5,6,7,8-tetrahydro-2,6-naphthyridin-1-yl)-3,4,6,7,9,9a-hexahydro-1H-pyrazino[1,2-a]pyrazin-2-yl]quinoline-8-carbonitrile]
15 | 40 | Cc1cc(N2CCN3[C@@H](C2)CN(c2ccc(C#N)c4ncccc24)C[C@H]3C)nc(N2CC(C)(N)C2)n1 [Example 55, 5-[(4R,9aR)-8-[2-(3-amino-3-methyl-azetidin-1-yl)-6-methyl-pyrimidin-4-yl]-4-methyl-3,4,6,7,9,9a-hexahydro-1H-pyrazino[1,2-a]pyrazin-2-yl]quinoline-8-carbonitrile]
23 | 17 | [2H]c1ccc2c(N3C[C@@H]4CN(CCc5ccc(N6C[C@@H](N)[C@H](OC)C6)nc5)CCN4[C@H](C)C3)ccc(C#N)c2n1 [Example 62, 5-[(4R,9aS)-8-[2-[6-[(3R,4R)-3-amino-4-methoxy-pyrrolidin-1-yl]-3-pyridyl]ethyl]-4-methyl-3,4,6,7,9,9a-hexahydro-1H-pyrazino[1,2-a]pyrazin-2-yl]-2-deuterio-quinoline-8-carbonitrile]
18 | 8 | CO[C@@H]1CN(c2ccc(CCN3CCN4[C@@H](C3)CN(c3ccc(C#N)c5ncccc35)C[C@H]4C)cc2)C[C@H]1N [Example 26, 5-[(4R,9aS)-8-[2-[4-[(3R,4R)-3-amino-4-methoxy-pyrrolidin-1-yl]phenyl]ethyl]-4-methyl-3,4,6,7,9,9a-hexahydro-1H-pyrazino[1,2-a]pyrazin-2-yl]quinoline-8-carbonitrile]
14 | 51 | C[C@@H]1CN(c2ccc(C#N)c3ncccc23)C[C@@H]2CN(CCc3ccc(N4CCN[C@@H](C)C4)cn3)CCN21 [Example 20, 5-[(4R,9aS)-4-methyl-8-[2-[5-[(3S)-3-methylpiperazin-1-yl]-2-pyridyl]ethyl]-3,4,6,7,9,9a-hexahydro-1H-pyrazino[1,2-a]pyrazin-2-yl]quinoline-8-carbonitrile]
66 | 52 | C[C@@H]1CN(c2ccc(C#N)n3ncc(F)c23)C[C@@H]2CN(Cc3ccc4c(c3)CNCC4)CCN21 [Example 69, 4-[(4R,9aS)-4-methyl-8-(1,2,3,4-tetrahydroisoquinolin-7-ylmethyl)-3,4,6,7,9,9a-hexahydro-1H-pyrazino[1,2-a]pyrazin-2-yl]-3-fluoro-pyrazolo[1,5-a]pyridine-7-carbonitrile]
28 | 62 | C[C@@H]1CN(c2ccc(C#N)n3ncc(F)c23)C[C@@H]2CN(CCc3ccc(N4CC(C)(N)C4)nc3)CCN21 [Example 74, 4-[(4R,9aS)-8-[2-[6-(3-amino-3-methyl-azetidin-1-yl)-3-pyridyl]ethyl]-4-methyl-3,4,6,7,9,9a-hexahydro-1H-pyrazino[1,2-a]pyrazin-2-yl]-3-fluoro-pyrazolo[1,5-a]pyridine-7-carbonitrile]
5 | 1 | [2H]c1ccc2c(N3C[C@@H]4CN(c5ccc6c(n5)CCNC6)CCN4[C@@H](C)C3)ccc(C#N)c2n1 [Example 121, 5-[(4S,9aR)-4-methyl-8-(5,6,7,8-tetrahydro-1,6-naphthyridin-2-yl)-3,4,6,7,9,9a-hexahydro-1H-pyrazino[1,2-a]pyrazin-2-yl]-2-deuterio-quinoline-8-carbonitrile]
14 | 13 | Cc1cc(N2CCOC[C@H](N)C2)ncc1N1CCN2CCN(c3ccc(C#N)c4ncccc34)CC2C1 (stereo partly drawn) [Example 46, 5-[2-[6-[(6R)-6-amino-1,4-oxazepan-4-yl]-4-methyl-3-pyridyl]-3,4,6,7,9,9a-hexahydro-1H-pyrazino[1,2-a]pyrazin-8-yl]quinoline-8-carbonitrile]
9 | 28 | C[C@@H]1CN(c2ccc(C#N)c3ncccc23)C[C@@H]2CN(CCc3ccc(N4CC5(CNCCO5)C4)nc3)CCN21 [Example 59, 5-[(4R,9aS)-4-methyl-8-[2-[6-(5-oxa-2,8-diazaspiro[3.5]nonan-2-yl)-3-pyridyl]ethyl]-3,4,6,7,9,9a-hexahydro-1H-pyrazino[1,2-a]pyrazin-2-yl]quinoline-8-carbonitrile]
11 | 12 | C[C@@H]1CN(c2ccc(C#N)c3ncccc23)C[C@@H]2CN(Cc3cccc4c3CCNC4)CCN21 [Example 70, 5-[(4R,9aS)-4-methyl-8-(1,2,3,4-tetrahydroisoquinolin-5-ylmethyl)-3,4,6,7,9,9a-hexahydro-1H-pyrazino[1,2-a]pyrazin-2-yl]quinoline-8-carbonitrile]
19 | 53 | C[C@@H]1CN(c2ccc(C#N)c3ncccc23)C[C@@H]2CN(CCc3cccc(N4CCN[C@@H](C)C4)n3)CCN21 [Example 21, 5-[(4R,9aS)-4-methyl-8-[2-[6-[(3S)-3-methylpiperazin-1-yl]-2-pyridyl]ethyl]-3,4,6,7,9,9a-hexahydro-1H-pyrazino[1,2-a]pyrazin-2-yl]quinoline-8-carbonitrile]
62 | 39 | CO[C@@H]1CN(c2ccc(CCN3CCN4[C@@H](C3)CN(c3ccc(C#N)n5ncc(F)c35)C[C@H]4C)cc2)C[C@H]1N [Example 66, 4-[(4R,9aS)-8-[2-[4-[(3R,4R)-3-amino-4-methoxy-pyrrolidin-1-yl]phenyl]ethyl]-4-methyl-3,4,6,7,9,9a-hexahydro-1H-pyrazino[1,2-a]pyrazin-2-yl]-3-fluoro-pyrazolo[1,5-a]pyridine-7-carbonitrile]
19 | 6 | [2H]c1ccc2c(N3C[C@@H]4CN(Cc5ccc(N6CC(C)(N)C6)nc5C)CCN4[C@H](C)C3)ccc(C#N)c2n1 [Example 79, 5-[(4R,9aS)-8-[[6-(3-amino-3-methyl-azetidin-1-yl)-2-methyl-3-pyridyl]methyl]-4-methyl-3,4,6,7,9,9a-hexahydro-1H-pyrazino[1,2-a]pyrazin-2-yl]-2-deuterio-quinoline-8-carbonitrile]
